# Reference: patent US7884120B2, “2,4,5-trisubstituted imidazoles and their use as anti-microbial agents” (Lorus Therapeutics Inc., priority 2002, dated 2011)
# Like-named read-outs stand apart in the source and are kept apart here.
# Experiments:
# [1] = tested on: S. aureus, MRSA 1A-218, 1A-318, 1B-374, 1B-315, 1B-185, 1B387 and MSSA ATCC-6538, ATCC-29213; assay: MIC by standard microdilution method against S. aureus (MRSA and MSSA strains); assay type: cell-based; conditions: Staphylococcus aureus; against all 8 strains of S. aureus tested except where indicated; microdilution, Ca-MHB, 35° C., 24 hr; read-out: MIC
# Protocol: A standard microdilution method (NCCLS, 2000; Document M7-A5) was used to determine the minimum inhibitory concentrations (MICs) against S. aureus, methicillin-resistant strains (MRSA); 1A-218, 1A-318, 1B-374, 1B-315, 1B-185, 1B387 (Simor et al. 1999 Can Commun Dis Rep; 25:105-108) and methicillin-sensitive strains (MSSA); ATCC-6538 and ATCC-29213. The MICs of some compounds were also determined against other Gram-positive bacteria: Enterococcus faecium (ATCC 51559), Enterococcus faecalis (ATCC-51299, ATCC-29212) and Staphylococcus epidermidis (ATCC-35983).
# Mueller-Hinton broth (MHB) is recommended as the medium of choice for susceptibility testing of commonly isolated, rapidly growing aerobic organisms such as the Gram-positive bacteria included in this study. A “cation-adjusted Mueller-Hinton broth” (Ca-MHB) was prepared by first preparing standard MHB from a dehydrated base as recommended by the manufacturer.
# Single colonies from fresh agar plates of the different bacterial cultures were sub-cultured overnight in 3 ml of Tryptic soy broth (TSB) at 37° C. with shaking at 250 RPM. After 18-20 hours of incubation, the absorbance at λ=600 nm (OD600) were determined for each culture and adjusted to a final OD600=0.1 (4.2×10^7 cfu/ml). Bacterial suspensions were then diluted 1:200 in sterile Ca-MHB for the in vitro susceptibility test, with each well of the microtitre plate containing approximately 2×10^5 cfu/ml.
# Stock solutions of the different test compounds were prepared at concentrations of 1,280 μg/ml, 640 μg/ml, or 320 μg/ml in 50% DMSO (dimethyl sulfoxide). Serial two-fold dilutions were then prepared in 50% DMSO (the working concentrations were 1:10 of the stock concentrations in 100 μl culture suspensions). The filled microtitre plates were sealed in plastic bags and incubated at 35° C. for 24 hr in an ambient air incubator with shaking at 250 RPM. MIC values were determined as the lowest concentration where complete inhibition of the visible bacterial growth was observed by the unaided eye and confirmed by the measurement of the optical density (OD600).
# [2] = tested on: MRSA 1B-387; assay: In vivo anti-bacterial activity, ICR mice inoculated I.P. with MRSA, oral treatment; conditions: Staphylococcus aureus
# Protocol: For in vivo studies, groups of 5-10 female ICR mice (6-7 weeks) were inoculated intraperitonially with 3-8×10^7 CFU MRSA 1B-387 per mouse in 400 μl of 5% mucin. The test compounds at concentrations of 50 or 100 mg/kg were administered orally immediately after the bacterial inoculation and again 3 hours later. The selected dosages were administered twice daily throughout the experiment. The efficacy of the treatment was evaluated by comparison of mortality between the experimental and control groups (Table 5).
# [3] = tested on: Candida albicans (ATCC 24433); assay: In vitro anti-fungal activity, microdilution against Candida albicans; assay type: cell-based; conditions: ATCC24433, C. albicans ATCC 24433, compound 25 μg/ml
# Protocol: A microdilution method was used to determine the anti-fungal activity of different test compounds against Candida albicans (ATCC 24433) at 25 μg/ml. RPMI-1640 broth is recommended as the medium of choice for susceptibility testing of C. albicans (NCCLS, 2002; Document M27-A2) and was used in this study. The broth was buffered to pH 7.0 and then sterilized using a 250 ml vacuum driven disposable 0.45 um filtration system.
# C. albicans was sub-cultured from a −80° C. stock onto Sabouraud dextrose agar and incubated for 24-48 hrs at 37° C. The fungi inoculum was prepared by picking five colonies of ˜1 mm in diameter from 24-48 hr old cultures. The colonies were then suspended in 5 ml of sterile normal saline (8.5 g/L NaCl; 0.85% saline) diluted 1:50 and further diluted 1:20 with medium to obtain two-fold inoculum (1-5×10^3 cfu/ml). […] The microtitre plates were then sealed in plastic bags and incubated at 35° C. for 24-48 hrs in an ambient air incubator with shaking at 250 RPM.
# Inhibition of visible growth of C. albicans in the microtitre plate wells was assessed by the unaided eye and confirmed by OD600 reading. […] The MIC values of compounds with significant activity are also included.
# [4] = 24 h, read-out: Inhibition (%) after 24 h
# [5] = 48 h, read-out: Inhibition (%) after 48 h
SMILES,MIC [1],further results
O=[N+]([O-])c1ccc(-c2[nH]c(-c3c[nH]c4ccc(Br)cc34)nc2-c2ccccc2)cc1 [Compound 34],> 128 µg/mL,"responders at 100 mg/kg [2]: 100%; responders at 100 mg/kg ([2]; read-out: Survival %): 100%; inhibition at 25 µg/mL [3, 4]: 0%; inhibition at 25 µg/mL [3, 5]: 0%"
Cc1[nH]c2ccccc2c1-c1nc(-c2ccc(N(C)C)cc2)c(-c2ccc(N(C)C)cc2)[nH]1 [Compound 11],8 µg/mL,"responders at 100 mg/kg [2]: 0%; responders at 100 mg/kg ([2]; read-out: Survival %): 0%; inhibition at 25 µg/mL [3, 4]: 27%; inhibition at 25 µg/mL [3, 5]: 28%"
COC(=O)c1ccc2c(-c3nc(-c4ccccc4)c(-c4ccccc4)[nH]3)c[nH]c2c1 [Compound 83],> 128 µg/mL,"responders at 100 mg/kg [2]: 20%; responders at 100 mg/kg ([2]; read-out: Survival %): 20%; inhibition at 25 µg/mL [3, 4]: 0%; inhibition at 25 µg/mL [3, 5]: 0%"
Cc1[nH]c2ccccc2c1-c1nc(-c2cccs2)c(-c2cccs2)[nH]1 [Compound 25],32 to 64 µg/mL,
Ic1cccc(-c2nc(-c3c[nH]c4ccccc34)[nH]c2-c2cccc(I)c2)c1 [Compound 56],1 µg/mL,
c1ccc(-c2[nH]c(-c3c[nH]c4ccccc34)nc2-c2cccc3ccccc23)cc1 [Compound 54],2 to 4 µg/mL,
Brc1ccc2[nH]cc(-c3nc(-c4ccc(Oc5ccccc5)cc4)c(-c4ccc(Oc5ccccc5)cc4)[nH]3)c2c1 [Compound 39],> 128 µg/mL,
COc1ccc(-c2nc(-c3c(C)[nH]c4ccccc34)[nH]c2-c2ccc(OC)cc2)cc1 [Compound 9],8 µg/mL,
Oc1cccc(-c2nc(-c3ccccc3)c(-c3cccc4ccccc34)[nH]2)c1 [Compound 61],8 µg/mL,
O=C(O)c1ccc(-c2nc(-c3ccc4c(c3)-c3cc(-c5[nH]c(-c6ccc(C(=O)O)cc6)nc5-c5ccccc5)ccc3C4=O)c(-c3ccccc3)[nH]2)cc1 [Compound 72],0.5 to 2 µg/mL,
Oc1ccc(-c2nc(-c3ccc(Br)cc3)c(-c3ccccc3)[nH]2)cc1 [Compound 58],4 µg/mL,
COc1cc(-c2nc(-c3ccc(Cl)cc3)c(-c3ccc(Cl)cc3)[nH]2)cc(OC)c1O [Compound 66],2 µg/mL,
COc1ccc(-c2nc(-c3ccccc3)c(-c3ccccc3)[nH]2)c(OC)c1 [Compound 73],> 128 µg/mL,
Brc1ccc2[nH]cc(-c3nc4c5cc(I)ccc5c5ccc(I)cc5c4[nH]3)c2c1 [Compound 52],> 64 µg/mL,
Ic1ccc2c3ccccc3c3[nH]c(-c4c[nH]c5ccccc45)nc3c2c1 [Compound 53],1 µg/mL,
Cc1[nH]c2ccccc2c1-c1nc(-c2ccccn2)c(-c2ccccn2)[nH]1 [Compound 15],> 128 µg/mL,
O=C(O)c1ccc(-c2nc(-c3ccccc3)c(-c3cccc4ccccc34)[nH]2)cc1 [Compound 60],64 µg/mL,
Cc1ccc(-c2nc(-c3cccc(O)c3)[nH]c2-c2ccccc2Br)cc1 [Compound 64],4 µg/mL,
O=C(O)c1ccc(-c2nc(-c3ccc(Br)cc3)c(-c3ccccc3)[nH]2)cc1 [Compound 59],32 µg/mL,
COc1cccc(-c2nc(-c3c[nH]c4ccc(Br)cc34)[nH]c2-c2cccc(OC)c2)c1 [Compound 84],2 µg/mL,
Fc1ccc(-c2[nH]c(-c3c[nH]c4ccc(Br)cc34)nc2-c2ccncc2)cc1 [Compound 28],2 µg/mL,
Cc1[nH]c2ccccc2c1-c1nc(-c2ccc(Oc3ccccc3)cc2)c(-c2ccc(Oc3ccccc3)cc2)[nH]1 [Compound 38],> 128 µg/mL,
Oc1ccc(-c2nc(-c3cccc(Cl)c3Cl)c(-c3ccccc3)[nH]2)cc1O [Compound 69],16 µg/mL,
Brc1ccc2[nH]cc(-c3nc(-c4ccccc4)c(-c4ccc(-c5ccccc5)cc4)[nH]3)c2c1 [Compound 48],4 to 8 µg/mL,
Cn1cc(-c2nc3c4ccccc4c4ccccc4c3[nH]2)c2ccccc21 [Compound 47],> 128 µg/mL,

# More lines, main results first:
MIC [1],SMILES,further results
> 64 µg/mL,Brc1ccc2[nH]cc(-c3nc(-c4ccccc4)c(-c4ccc(N5CCCCC5)cc4)[nH]3)c2c1 [Compound 50],
2 to 4 µg/mL,Clc1ccc(-c2nc(-c3c[nH]c4ccc(Br)cc34)[nH]c2-c2ccc(Cl)cc2)cc1 [Compound 20],
> 128 µg/mL,Fc1ccc(-c2nc(-c3ccc4[nH]ccc4c3)[nH]c2-c2ccccc2)cc1 [Compound 76],
8 to 16 µg/mL,Cc1[nH]c2ccccc2c1-c1nc(-c2cccc(Cl)c2)c(-c2cccc(Cl)c2)[nH]1 [Compound 21],
2 µg/mL,c1ccc(-c2[nH]c(-c3c[nH]c4ccccc34)nc2-c2ccc3ccccc3c2)cc1 [Compound 55],
32 to 64 µg/mL,Cc1[nH]c2ccccc2c1-c1nc(-c2ccncc2)c(-c2ccc(F)cc2)[nH]1 [Compound 27],
2 µg/mL,Oc1ccc(-c2nc(-c3ccc(-c4ccccc4)cc3)c(-c3ccccc3)[nH]2)cc1 [Compound 63],
16 µg/mL,COc1ccc(-c2nc(-c3ccc(O)cc3)[nH]c2-c2ccc(OC)cc2)cc1 [Compound 57],
2 µg/mL,Brc1ccc2[nH]cc(-c3nc(-c4cccs4)c(-c4cccs4)[nH]3)c2c1 [Compound 26],
8 µg/mL,Cc1ccc(C)c(-c2nc(-c3cccc(O)c3)[nH]c2-c2ccccc2)c1 [Compound 71],
16 µg/mL,Cc1ccc([N+](=O)[O-])cc1-c1[nH]c(-c2cccc(O)c2)nc1-c1ccccc1 [Compound 67],
16 µg/mL,COc1ccccc1-c1nc(-c2c(C)[nH]c3ccccc23)[nH]c1-c1ccccc1OC [Compound 17],
4 µg/mL,c1ccc(-c2ccc(-c3[nH]c(-c4c[nH]c5ccccc45)nc3-c3ccccc3)cc2)cc1 [Compound 49],
8 µg/mL,COc1ccc(-c2nc(-c3cccc(Cl)c3Cl)c(-c3ccccc3)[nH]2)cc1O [Compound 70],
> 128 µg/mL,Cc1[nH]c2ccc([N+](=O)[O-])cc2c1-c1nc(-c2ccc(F)cc2)c(-c2ccccc2)[nH]1 [Compound 77],
32 µg/mL,Cc1[nH]c2ccc(N)cc2c1-c1nc(-c2ccc(F)cc2)c(-c2ccccc2)[nH]1 [Compound 75],
4 to 8 µg/mL,Cc1ccc(-c2nc(-c3c(C)[nH]c4ccccc34)[nH]c2-c2ccc(C)cc2)cc1 [Compound 23],
16 µg/mL,Clc1ccc(-c2nc(-c3c[nH]c4ccc(Br)cc34)[nH]c2-c2ccc(-c3ccccc3)cc2)cc1 [Compound 51],
2 µg/mL,Oc1cccc(-c2nc(-c3ccc(-c4ccccc4)cc3)c(-c3ccccc3)[nH]2)c1 [Compound 62],
16 µg/mL,O=C(O)c1ccc(-c2nc(-c3ccc(Br)cc3)c(-c3ccc(Br)cc3)[nH]2)cc1 [Compound 65],
> 128 µg/mL,COc1ccc(-c2nc(-c3ccc(F)cc3)c(-c3ccccc3)[nH]2)c(OC)c1 [Compound 74],
> 128 µg/mL,Cc1[nH]c2ccccc2c1-c1nc(-c2ccc(-c3ccccc3)cc2)c(-c2ccc(-c3ccccc3)cc2)[nH]1 [Compound 40],
4 to 16 µg/mL,Cc1[nH]c2ccccc2c1-c1nc(-c2ccc(F)cc2)c(-c2ccc(F)cc2)[nH]1 [Compound 7],
> 128 µg/mL,Fc1ccc(-c2[nH]c(-c3c[nH]c4ccccc34)nc2-c2ccccc2)cc1 [Compound 37],
